Test results taken from PMC13588620, “Linear antibody epitope prediction using AlphaFold2” (eLife, 2026).

System: mBG17 binding to SARS-CoV-2 nucleocapsid protein
Test: Peptide competition ELISA with overlapping nucleocapsid peptides
Design: species or system mouse
Conditions: 40 μg (approximately 30 nMol) peptide incubated with 40 μl mBG17 for 1 h at room temperature, absorbance at 450 nm, n=3, percentage of binding from no-peptide control

Sequence	competition of mBG17 binding to the SARS-CoV-2 nucleocapsid protein in the ELISA
DDFSKQLQQS [a.a. 401–410]	almost complete competition
PAADLDDFSK [a.a. 296–405, synthetic 10 a.a. peptide of SARS-CoV-2 nucleocapsid protein overlapping a.a; 401–410 at the N-terminus]	neither was able to compete
QLQQSMSSAD [a.a. 406–415, synthetic 10 a.a. peptide of SARS-CoV-2 nucleocapsid protein]	neither was able to compete
